In patent US9422263B2, “Fluoro-substituted 3,5-dicyano-4-(1H-indazol-5-yl)-2,6-dimethyl-1,4-dihydropyridine derivatives and methods of use thereof” (BAYER PHARMA AKTIENGESELLSCHAFT, priority 2009, dated 2016):

Assays:
[1] = Caco-2 permeability assay; assay type: in vitro ADME; conditions: human, apical to basolateral, 2 h at 37° C., Table 4, read-out: Caco-2 permeability PappA-B
From the text: Caco-2 Permeability Assay:
The in vitro permeation of a test compound across a Caco-2 cell monolayer is a well-established assay system to predict the permeability from the gastro-intestinal tract [cf. P. Artursson and J. Karlsson: Correlation between oral drug absorption in humans and apparent drug permeability coefficients in human intestinal epithelial (Caco-2) cells, Biochem. Biophys. 175 (3), 880-885 (1991)]. The permeability of the compounds of the present invention in such Caco-2 cells was determined as described below:
Human caco-2 cells (ACC No. 169, DSMZ, German Collection of Microorganisms and Cell Cultures, Braunschweig, Germany) are seeded on 24-well insert plates and are allowed to grow for 14-16 days. For permeability studies, the test compounds are dissolved in DMSO and diluted to the final test concentration of 2 μM with transport buffer [Hanks' Buffered Salt Solution, Gibco/Invitrogen, further supplemented with glucose (final concentration 19.9 mM) and HEPES (final concentration 9.8 mM)]. For determination of the apical to basolateral permeability (PappA-B), the test compound solution is added to the apical side of the cell monolayer and transport buffer to the basolateral side of the monolayer; for determination of the basolateral to apical permeability (PappB-A), the test compound solution is added to the basolateral side of the cell monolayer and transport buffer to the apical side of the monolayer. Samples are taken from the donor compartment at the beginning of the experiment to confirm mass balance. After an incubation of 2 h at 37° C., samples are taken from both compartments. Samples are analyzed by LC-MS/MS, and the apparent permeability coefficients are calculated. Lucifer Yellow permeability is assayed for each cell monolayer to ensure cell monolayer integrity, and the permeability of Atenolol (low permeability marker) and Sulfasalazine (marker for active excretion) is determined for each batch as quality control.

[2] = target: recombinant kinase domain of the human c-Met (amino acids 960-1390) (Homo sapiens (Human), UniProt P08581); experiment: c-Met receptor tyrosine kinase homogeneous time-resolved fluorescence assay (alternative format); assay type: biochemical; conditions: HTRF format; ATP 10 μM
Sequence of recombinant kinase domain of the human c-Met (amino acids 960-1390) (P08581 960-1390): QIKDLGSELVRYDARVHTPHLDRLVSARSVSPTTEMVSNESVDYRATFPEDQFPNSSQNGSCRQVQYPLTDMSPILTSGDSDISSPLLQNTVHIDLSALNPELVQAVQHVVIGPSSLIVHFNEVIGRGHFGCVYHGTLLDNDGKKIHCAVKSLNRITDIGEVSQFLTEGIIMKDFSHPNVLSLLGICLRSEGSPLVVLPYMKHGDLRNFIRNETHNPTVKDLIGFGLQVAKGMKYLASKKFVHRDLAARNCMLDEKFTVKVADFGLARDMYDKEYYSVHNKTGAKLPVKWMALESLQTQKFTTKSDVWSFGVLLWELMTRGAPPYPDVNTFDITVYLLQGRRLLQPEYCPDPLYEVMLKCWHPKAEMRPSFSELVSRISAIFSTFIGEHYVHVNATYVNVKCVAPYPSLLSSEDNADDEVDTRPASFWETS
From the text: c-Met Receptor Tyrosine Kinase Homogeneous Time-Resolved Fluorescence Assay (Alternative Format):
The N-terminally His6-tagged recombinant kinase domain of the human c-Met (amino acids 960-1390), expressed in insect cells (SF21) and purified by Ni-NTA affinity chromatography and consecutive size exclusion chromatography (Superdex 200), is used. Alternatively, commercially available c-Met (Millipore) can be used. As substrate for the kinase reaction, the biotinylated poly-Glu, Tyr (4:1) copolymer (#61GTOBLC, Cis Biointernational, Marcoule, France) is used.
For the assay, […] of a 100-fold concentrated solution of the test compound in DMSO is pipetted into a black low-volume 384-well microtiter plate (Greiner Bio-One, Frickenhausen, Germany). 2 μL of a solution of c-Met in assay buffer [25 mM Hepes/NaOH, pH 7.5; 5 mM MgCl2; 5 mM MnCl2; 2 mM dithiothreitol; 0.1% (v/v) Tween 20 (Sigma); 0.1% (w/v) bovine serum albumin] are added, and the mixture is incubated for 15 min at 22° C. to allow pre-binding of the test compound to the enzyme before the start of the kinase reaction. Then, the kinase reaction is started by the addition of 3 μL of a solution of adenosine triphosphate (ATP, 16.7 μM; final concentration in the 5 μL assay volume is 10 μM) and substrate (2.27 μg/mL, final concentration in the 5 μL assay volume is 1.36 μg/mL ˜30 nM) in assay buffer, and the resulting mixture is incubated for a reaction time of 30 min at 22° C. The concentration of c-Met in the assay is adjusted depending on the activity of the enzyme lot and is appropriately chosen to have the assay in the linear range; typical enzyme concentrations are in the range of about 0.03 nM (final concentration in the 5 μL assay volume). The reaction is stopped by the addition of 5 μL of a solution of HTRF detection reagents [40 nM streptavidine-X Lent and 2.4 nM PT66-Eu-chelate, an europium-chelate labelled anti-phosphotyrosine antibody (Perkin-Elmer)] in an aqueous EDTA solution [100 mM EDTA, 0.2% (w/v) bovine serum albumin in 50 mM HEPES/NaOH, pH 7.5].
The resulting mixture is incubated for 1 h at 22° C. to allow the binding of the biotinylated phosphorylated peptide to the streptavidine-XLent and the PT66-Eu-chelate. Subsequently, the amount of phosphorylated substrate is evaluated by measurement of the resonance energy transfer from the PT66-Eu-chelate to the streptavidine-XLent. Therefore, the fluorescence emissions at 620 nm and 665 nm after excitation at 350 nm are measured in an HTRF reader, e.g. Rubystar (BMG Lab-technologies, Offenburg, Germany) or Viewlux (Perkin-Elmer). The ratio of the emissions at 665 nm and at […] is taken as the measure for the amount of phosphorylated substrate. The data are normalised (enzyme reaction without inhibitor=0% inhibition; all other assay components but no enzyme=100% inhibition).

[3] = target: Recombinant human c-Met protein (Homo sapiens (Human), UniProt P08581); experiment: c-Met receptor tyrosine kinase activity assay (NADH read-out); assay type: biochemical; conditions: ATP 30 μM, c-Met 30 nM
Sequence of Recombinant human c-Met protein (P08581 25-1390): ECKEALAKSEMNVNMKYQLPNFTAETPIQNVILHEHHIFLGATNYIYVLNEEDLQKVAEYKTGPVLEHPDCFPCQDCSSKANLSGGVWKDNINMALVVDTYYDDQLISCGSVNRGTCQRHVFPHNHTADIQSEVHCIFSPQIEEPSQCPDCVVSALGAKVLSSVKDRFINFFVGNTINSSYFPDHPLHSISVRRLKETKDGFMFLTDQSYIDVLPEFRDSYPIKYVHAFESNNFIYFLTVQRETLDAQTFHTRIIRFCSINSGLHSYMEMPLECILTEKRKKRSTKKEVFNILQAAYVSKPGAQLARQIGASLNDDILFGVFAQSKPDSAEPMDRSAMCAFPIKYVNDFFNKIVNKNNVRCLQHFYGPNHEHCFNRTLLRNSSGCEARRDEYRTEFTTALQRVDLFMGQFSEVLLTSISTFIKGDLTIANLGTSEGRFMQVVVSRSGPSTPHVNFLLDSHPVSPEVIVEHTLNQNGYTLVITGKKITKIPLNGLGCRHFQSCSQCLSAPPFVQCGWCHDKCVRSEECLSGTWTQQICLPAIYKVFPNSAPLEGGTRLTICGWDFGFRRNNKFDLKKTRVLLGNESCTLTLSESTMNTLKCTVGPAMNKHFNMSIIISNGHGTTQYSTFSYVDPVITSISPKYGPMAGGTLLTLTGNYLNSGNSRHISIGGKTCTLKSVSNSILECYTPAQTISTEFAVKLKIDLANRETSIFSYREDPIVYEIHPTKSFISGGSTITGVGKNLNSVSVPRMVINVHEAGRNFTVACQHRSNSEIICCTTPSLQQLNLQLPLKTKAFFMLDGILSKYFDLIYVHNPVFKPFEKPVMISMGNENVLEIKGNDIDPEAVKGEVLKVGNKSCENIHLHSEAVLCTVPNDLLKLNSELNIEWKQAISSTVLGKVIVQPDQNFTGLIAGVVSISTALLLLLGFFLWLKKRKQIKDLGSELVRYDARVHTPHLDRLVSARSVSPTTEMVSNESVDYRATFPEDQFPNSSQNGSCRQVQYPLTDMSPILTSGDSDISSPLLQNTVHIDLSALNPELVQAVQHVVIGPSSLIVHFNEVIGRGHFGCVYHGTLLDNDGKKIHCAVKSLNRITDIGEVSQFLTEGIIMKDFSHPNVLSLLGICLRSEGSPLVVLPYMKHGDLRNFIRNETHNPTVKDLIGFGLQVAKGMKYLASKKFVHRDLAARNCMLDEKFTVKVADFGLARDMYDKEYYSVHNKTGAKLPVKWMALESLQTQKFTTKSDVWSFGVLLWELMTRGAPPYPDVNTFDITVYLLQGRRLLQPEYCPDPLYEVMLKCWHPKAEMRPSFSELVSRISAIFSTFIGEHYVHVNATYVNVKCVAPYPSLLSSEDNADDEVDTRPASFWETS
Protocol: c-Met Receptor Tyrosine Kinase Activity Assay (NADH Read-Out):
Recombinant human c-Met protein (Invitrogen, Carlsbad, Calif., USA) is used. As substrate for the kinase reaction the peptide KKKSPGEYVNIEFG (JPT, Germany) is used. For the assay, 1 μL of a 51-fold concentrated solution of the test compound in DMSO is pipetted into a white 384-well microtiter plate (Greiner Bio-One, Frickenhausen, Germany). 25 μL of a solution of c-Met (final concentration 30 nM) and pyruvate kinase/lactate dehydrogenase (Roche Diagnostics, Mannheim, Germany; final concentration 8 mg/L) in assay buffer [3-(N-morpholino)propanesulfonic acid (MOPS), 50 mM, pH 7; MgCl2, 10 mM; bovine serum albumin (BSA), 0.01%; Triton X 100, 0.01%; DTT, 2 mM] are added, and the mixture is incubated for 5 min at room temperature. Then, the kinase reaction is started by the addition of 25 μL of a solution of adenosine triphosphate (ATP, final concentration 30 μM), substrate (final concentration 100 μM), nicotinamide adenine dinucleo-tide (NADH, final concentration 50 μM) and dithiothreitol (DTT, final concentration 2 mM) in assay buffer, and the resulting mixture is incubated for a reaction time of 100 min at 32° C.
Subsequently, the amount of phosphorylated substrate is evaluated by measurement of the decrease of NADH fluorescence. Therefore, the fluorescence emissions at 465 nm after excitation at 340 nm is measured in a fluorescence reader, e.g. Tecan Ultra (Tecan, Männedorf, Switzerland). The data are normalised (enzyme reaction without inhibitor=0% inhibition; all other assay components but no enzyme=100% inhibition).

Row | Papp at 2 h, 2 μM [1] [×10⁻⁶ cm/s] | IC50 [2] [nM] | IC50 [3] [nM] | SMILES
1 | 22 | 3 | 21 | CCC(F)(F)C1=C(C#N)C(c2ccc3[nH]nc(C)c3c2)C(C#N)=C(C)N1 (racemic) [Example 30, rac-2-(1,1-Difluoropropyl)-6-methyl-4-(3-methyl-1H-indazol-5-yl)-1,4-dihydropyridine-3,5-dicarbonitrile]
2 |  | 2 | 6 | CC1=C(C#N)C(c2ccc3[nH]nc(C)c3c2)C(C#N)=C(C(F)F)N1 (single isomer, unassigned) [Example 2, 2-(Difluoromethyl)-6-methyl-4-(3-methyl-1H-indazol-5-yl)-1,4-dihydropyridine-3,5-dicarbonitrile]
